For this assay, the target named is T1, Menin (Homo sapiens, UniProt O00255).
T1 sequence (O00255 whole entry): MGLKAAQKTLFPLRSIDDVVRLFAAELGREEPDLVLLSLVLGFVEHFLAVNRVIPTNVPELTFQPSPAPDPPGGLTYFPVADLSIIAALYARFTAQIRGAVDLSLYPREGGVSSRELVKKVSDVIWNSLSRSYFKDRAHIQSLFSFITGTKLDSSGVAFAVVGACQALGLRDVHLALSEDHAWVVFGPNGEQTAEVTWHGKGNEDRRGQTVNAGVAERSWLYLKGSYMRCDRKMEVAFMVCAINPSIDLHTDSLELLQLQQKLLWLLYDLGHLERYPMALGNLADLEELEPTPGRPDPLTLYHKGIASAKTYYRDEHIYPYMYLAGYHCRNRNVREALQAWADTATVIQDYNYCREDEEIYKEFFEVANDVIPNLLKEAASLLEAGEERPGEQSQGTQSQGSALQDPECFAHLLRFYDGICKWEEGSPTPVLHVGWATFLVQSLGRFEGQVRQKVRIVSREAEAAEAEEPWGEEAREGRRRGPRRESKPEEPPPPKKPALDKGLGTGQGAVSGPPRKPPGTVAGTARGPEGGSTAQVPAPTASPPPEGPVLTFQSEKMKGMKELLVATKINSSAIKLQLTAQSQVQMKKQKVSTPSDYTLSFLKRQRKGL
In words: Menin-MLL Interaction Inhibitory Activity Assay. How it is done:
The inhibition of Menin/MLL-4-43 peptide interaction by small molecule inhibitors was quantitatively detected by fluorescence polarization competition assay. The experiment was performed in a 384-well plate (Corning, Cat #3575) using a reaction buffer consisting of 50 mM Tris, pH 7.5, 50 mM NaCl, and 1 mM DTT. A 40 μL reaction system included 10 μL of 8 nM Menin recombinant protein and 10 μL of the test compound at different concentrations. The compound was pre-incubated with Menin protein for 15 min, and then 20 μL of 10 nM FITC-MLL4-43-peptide was added. After incubation on a shaker at 25° C. for 60 min, the fluorescence polarization signal (FP 485 520 520) was read using BMG PHERAStar detection. The experimental data was analyzed and processed by GraphPad Prism 6 software to obtain the IC50 value.

On to `CCN(C(=O)c1cc(F)ccc1Oc1cncnc1N1CC2(CCN(C[C@H]3CC[C@@]4(CCC(=O)N4)CC3)CC2)C1)C(C)C` [US20250074910, Example 1], for which half-maximal inhibition (IC50) was put at 36.3 nM.

With `CC(C)N(C(=O)c1cc(F)ccc1Oc1nncnc1N1CC2(CCN(C[C@H]3CC[C@]4(CC3)CC(CO)(CO)C(=O)N4)CC2)C1)C(C)C` [US20250074910, Example 63], the midpoint of inhibition, the IC50, lay at 8.3 nM.
